For experiment [1], the target named is T1, human EP4 receptor subtype (Homo sapiens, UniProt P35408).
T1 construct: expressed in transfected cells; host or cells: COS-7 cells (transient expression), membrane fraction
As to the kind of experiment: Receptor binding study using PGE2 receptor subtype expression cells (3H-PGE2 displacement, membrane fraction). The following applies: human EP4 receptor transiently expressed in COS-7 cells, membrane fraction 10 µg/tube, 3H-PGE2 5 nM, 30°C for 1 hour; Ki = IC50/(1+[C]/Kd); read-out: DISSOCIATION CONSTANT Ki (nM) EP4. On the procedure:
The compound represented by the following formula (II) among the compounds represented by the general formula (I) strongly binds to the EP4 receptor as a subtype of the PGE2 receptor. The binding activity was confirmed in comparison with PGE2 by an experiment using the PGE2 receptor subtype expression cells. [drawing 2]
The experiment was carried out according to the previous report [Breyer, R. M. et al., J. Biol. Chem. 269, 6163-6169 (1994)], wherein the human EP4 receptor subtype was transiently expressed using COS-7 cells. These cells were prepared as membrane samples. The membrane fraction prepared (10 µg/tube) was incubated with reaction solution containing ^3H-PGE2 at 30°C for 1 hour. The reaction was terminated with ice-cold buffer [10mM MES (pH6.0), 10mM MgCl2, 1mM EDTA], and the bound ^3H-PGE2 was trapped on a glass filter (GF/C) by vacuum filtration under a reduced pressure, followed by counting the radioactivity with a liquid scintillator.
The Kd value and Bmax were determined from a Scatchard plot according to the conventional method. The non-specific binding was determined by the amount of binding in the presence of an excess amount (5 µM) on the non-labeled PGE2. Inhibitory action of the ^3H-PGE2 binding by the compound to be tested was determined at a concentration of ^3H-PGE2 of 5 nM by adding various concentrations of the compound to be tested. […]

The test system of experiment [2] is human normal lung fibroblast cells. As to the kind of experiment: Effects on collagen production in human normal lung fibroblast cells (TGF-β1 stimulated, Siricol Collagen Assay Kit). The following applies: compound 1 µM with TGF-β1 5 ng/ml, incubated for 24 hours; salt-soluble collagen; Reference (without compound): 1.1 µg/100,000 cells. Type of experiment: cell-based. On the procedure:
The suppression action of the compound represented by the formula (II) on the collagen production from the fibroblast cells was confirmed by the following test method. After the human normal lung fibroblast cells were cultured for 48 hours under the condition of confluence (Eagle MEM culture medium with 0.45% FBS), the cells were added(1 µM) the compound represented by the formula (II) and transforming growth factor β1 (TGF-β1) at a concentration of 5 ng/ml, then incubated for 24 hours. The supernatant from the cell culture medium was concentrated by freeze-drying, and the amount of collagen (salt-soluble collagen) was […] assayed using Siricol Collagen Assay Kit (made by Biocolor Co.). The amounts of collagen in the supernatant were as follows: Reference: 1.1 µg/100,000 cells Compound (II): 0.5 µg/100,000 cells It was confirmed that production of collagen by TGF-β1 was suppressed by the compound according to the present invention.

The record followed here is patent EP1080728A1, “PROSTAGLANDIN EP4 RECEPTOR AGONIST AND TREATMENT METHOD” (TORAY INDUSTRIES, INC., priority 1999, dated 2000).

T1 sequence (P35408 whole entry): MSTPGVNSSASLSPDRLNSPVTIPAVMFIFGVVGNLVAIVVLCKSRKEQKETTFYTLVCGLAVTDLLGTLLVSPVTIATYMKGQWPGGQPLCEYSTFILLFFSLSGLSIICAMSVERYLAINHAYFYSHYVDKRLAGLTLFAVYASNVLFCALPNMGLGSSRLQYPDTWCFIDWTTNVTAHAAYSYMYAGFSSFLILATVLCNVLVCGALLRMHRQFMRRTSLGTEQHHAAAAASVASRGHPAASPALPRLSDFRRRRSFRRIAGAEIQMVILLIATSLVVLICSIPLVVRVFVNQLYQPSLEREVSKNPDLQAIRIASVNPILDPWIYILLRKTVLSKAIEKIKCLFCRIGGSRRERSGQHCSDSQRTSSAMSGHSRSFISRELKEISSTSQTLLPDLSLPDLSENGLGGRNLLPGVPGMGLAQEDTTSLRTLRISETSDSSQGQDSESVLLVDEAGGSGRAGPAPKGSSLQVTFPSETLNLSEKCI

On to `O=C(O)CCc1cccc2c1O[C@H]1C[C@@H](O)[C@H](/C=C/[C@@H](O)CC3CCCCC3)[C@@H]21` [COMPOUND (II)], for which the inhibition constant (Ki) in experiment [1] is 19 nM. Further, the “amounts of collagen in the supernatant” value in experiment [2] is 0.5 µg/100,000 cells.
